Reference: PMC3639044 (Molecular Biology of the Cell, 2013)

Molecular target: T1, TbPLK^as (analogue-sensitive Trypanosoma brucei Polo-like kinase) (Trypanosoma brucei, UniProt Q57VI0, C57V/L118G)
T1 sequence (Q57VI0 1-768 C57V/L118G): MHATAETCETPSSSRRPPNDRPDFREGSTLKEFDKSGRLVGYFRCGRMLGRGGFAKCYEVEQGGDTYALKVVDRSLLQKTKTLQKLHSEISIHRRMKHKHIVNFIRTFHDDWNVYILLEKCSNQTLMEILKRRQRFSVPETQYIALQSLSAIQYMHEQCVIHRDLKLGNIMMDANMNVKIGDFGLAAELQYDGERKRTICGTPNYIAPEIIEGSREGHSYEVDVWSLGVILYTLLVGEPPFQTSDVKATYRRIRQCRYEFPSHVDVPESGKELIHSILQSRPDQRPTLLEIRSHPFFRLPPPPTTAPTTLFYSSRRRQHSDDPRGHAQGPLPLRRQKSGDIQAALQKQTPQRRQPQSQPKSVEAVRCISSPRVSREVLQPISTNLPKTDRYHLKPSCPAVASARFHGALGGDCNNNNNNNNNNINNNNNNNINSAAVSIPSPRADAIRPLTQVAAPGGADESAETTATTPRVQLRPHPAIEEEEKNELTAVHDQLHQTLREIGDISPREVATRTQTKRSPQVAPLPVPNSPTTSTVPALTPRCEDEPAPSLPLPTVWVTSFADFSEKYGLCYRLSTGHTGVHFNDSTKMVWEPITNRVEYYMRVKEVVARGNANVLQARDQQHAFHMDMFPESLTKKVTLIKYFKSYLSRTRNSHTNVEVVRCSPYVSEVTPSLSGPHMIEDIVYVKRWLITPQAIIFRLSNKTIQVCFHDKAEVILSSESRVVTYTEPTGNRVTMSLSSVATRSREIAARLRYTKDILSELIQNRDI
Format: biochemical

Compound `Cc1cccc(Cc2nn(C(C)(C)C)c3ncnc(N)c23)c1` [3MB-PP1] has an IC50 of about 250 nM.
